Data published in paper PMC9019904, “AD Informer Set: Chemical tools to facilitate Alzheimer's disease drug discovery” (Alzheimer's & Dementia : Translational Research & Clinical …, 2022).

Assays:
[1] = test system: BV2 (mouse microglia) cell line; experiment: pHrodo-myelin phagocytosis/cell viability high content imaging assay: viability (cell count, nuclear area, nuclear intensity)
Procedure, shortened: (§1)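 Duplicate single-point screen at 10 μM over 48 h, combined with pHrodo-myelin phagocytosis during the last 20 h. Cytotoxicity is taken from imaged cell counts and nuclear intensity changes, normalized to untreated wells as % control.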

[2] = test system: HMC3 (human microglia) cell line; experiment: as above
Procedure, shortened: as §1

[3] = test system: BV2 (mouse microglia) cell line; experiment: pHrodo-myelin phagocytosis/cell viability high content imaging assay: phagocytosis signal; assay type: cell-based
Procedure, shortened: (§2)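 Mouse BV2 and human HMC3 microglia given pHrodo-myelin; phagocytosis and cell viability imaged together by high content imaging about 22 hours after myelin addition. Three measurements extracted, including intensity increase and decrease marking early and later apoptosis.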

[4] = test system: HMC3 (human microglia) cell line; experiment: as above; assay type: cell-based
Procedure, shortened: as §2

[5] = BV2, compound 10 uM, 48 hours treatment
[6] = HMC3, compound 10 uM, 48 hours treatment
[7] = BV2, compound 10 uM, pHrodo-myelin
[8] = HMC3, compound 10 uM, pHrodo-myelin
[9] = BV2 cells, 10 uM compound, 48 hours treatment
[10] = HMC3 cells, 10 uM compound, 48 hours treatment
[11] = BV2 cells, 10 uM compound, 48 hours treatment, pHrodo-myelin final 20 hours
[12] = HMC3 cells, 10 uM compound, 48 hours treatment, pHrodo-myelin final 20 hours

Compound | 1. Cell count (% control) [1, 5] | 2. Nuclear Area (% Control) [1, 5] | 3. Nuclear DNA Intensity (% control) [1, 5] | 1. Cell count (% control) [2, 6] | 2. Nuclear Area (% Control) [2, 6] | 3. Nuclear DNA Intensity (% control) [2, 6] | 4. Phagocytosis (% control) [3, 7] | 4. Phagocytosis (% control) [4, 8] | 1. Cell count (% control) [1, 9] | 2. Nuclear Area (% Control) [1, 9] | 3. Nuclear DNA Intensity (% control) [1, 9] | 1. Cell count (% control) [2, 10] | 2. Nuclear Area (% Control) [2, 10] | 3. Nuclear DNA Intensity (% control) [2, 10] | 4. Phagocytosis (% control) [3, 11] | 4. Phagocytosis (% control) [4, 12] | other results
O=c1[nH]c2ccccc2n1C1CCN(CCCC(c2ccc(F)cc2)c2ccc(F)cc2)CC1 [UNC10101002A] | 77.1 % control | 99.5 % Control | 98.4 % control | 97.6 % control | 104.3 % Control | 96.0 % control | 134.9 % control | 140.6 % control | – | – | – | – | – | – | – | – | –
COCCOCCOC(=O)N[C@@H](CC(C)C)C(=O)N[C@@H](Cc1ccccc1)C(=O)C(=O)NC1CC1 [UNC10302677A] | – | – | – | – | – | – | – | – | 132.7 % control | 105.3 % Control | 103.4 % control | 142.6 % control | 102.2 % Control | 91.6 % control | 132.9 % control | 70.4 % control | –
Cc1c(COc2cc(OCc3cccc(C#N)c3)c(CN3C[C@H](O)C[C@@H]3C(=O)O)cc2Cl)cccc1-c1ccc2c(c1)OCCO2 [UNC10302972A] | – | – | – | – | – | – | – | – | 81.0 % control | 106.7 % Control | 113.8 % control | 116.0 % control | 98.5 % Control | 101.3 % control | 125.1 % control | 111.9 % control | –
C=C(c1ccc(C(=O)O)cc1)c1cc2c(cc1C)C(C)(C)CCC2(C)C [UNC10302949A] | – | – | – | – | – | – | – | – | 91.0 % control | 109.3 % Control | 95.6 % control | 131.9 % control | 99.3 % Control | 94.9 % control | 117.0 % control | 79.3 % control | –
CC1(COc2ccc3c(c2)ncn3-c2ccc3cccc(N4CCC(N)CC4)c3n2)COC1 [UNC10223898A] | 26.6 % control | 103.7 % Control | 28.1 % control | 60.3 % control | 56.9 % Control | 188.8 % control | 0.00125 % control | 0.347 % control | – | – | – | – | – | – | – | – | –
COc1ccc2nc([S+]([O-])Cc3ncc(C)c(OC)c3C)nc-2[nH]1 (centres unmarked) [UNC10303106A] | – | – | – | – | – | – | – | – | 113.2 % control | 104.8 % Control | 103.4 % control | 100.3 % control | 105.8 % Control | 97.2 % control | 116.6 % control | 91.6 % control | –
COc1ccc(CCCN2CCC(COC(c3ccccc3)c3ccccc3)CC2)cc1 [UNC10303165A] | 87.4 % control | 108.5 % Control | 107.0 % control | 110.9 % control | 113.8 % Control | 93.8 % control | 176.2 % control | 43.5 % control | – | – | – | – | – | – | – | – | –
O=c1ccc2c(OCCCCOc3ccccc3)c3ccoc3cc2o1 [UNC10302901A] | – | – | – | – | – | – | – | – | 138.9 % control | 105.4 % Control | 102.9 % control | 143.5 % control | 101.6 % Control | 95.5 % control | 188.1 % control | 89.9 % control | –
CNC(=O)c1c(F)cccc1Nc1nc(Nc2cc3c(cc2OC)CCN3C(=O)CN(C)C)nc2[nH]ccc12 [UNC10302864A] | – | – | – | – | – | – | – | – | 66.3 % control | 109.6 % Control | 102.8 % control | 108.9 % control | 90.1 % Control | 123.0 % control | 89.4 % control | 58.3 % control | –
Cc1ccccc1C(=O)Nc1ccc(C(=O)N2CCCC(O)c3cc(Cl)ccc32)c(C)c1 (centres unmarked) [UNC10302860A] | 118.5 % control | 108.9 % Control | 107.5 % control | 130.2 % control | 105.3 % Control | 93.3 % control | 197.1 % control | 100.1 % control | – | – | – | – | – | – | – | – | –
CCc1ccc(CCOc2ccc(CC3SC(=O)NC3=O)cc2)nc1.Cl (centres unmarked) [UNC10240376D] | – | – | – | – | – | – | – | – | 113.0 % control | 109.1 % Control | 109.5 % control | 140.5 % control | 99.5 % Control | 91.5 % control | 139.3 % control | 81.1 % control | –
C=C1[C@@H](C)[C@H]2[C@H](Cc3ccccc3)NC(=O)[C@]23[C@H](OC(C)=O)/C=C/[C@@](C)(O)C(=O)[C@@H](C)C/C=C/[C@H]3[C@@H]1O [Cytochalasin-D] | – | – | – | – | – | – | – | – | – | – | – | – | – | – | – | – | 1. Cell count (% control) ([1]; BV2, control compound at 4uM): 9.1 % control; 2. Nuclear Area (% Control) ([1]; BV2, control compound at 4uM): 119.3 % Control; 3. Nuclear DNA Intensity (% control) ([1]; BV2, control compound at 4uM): 141.3 % control; 1. Cell count (% control) ([2]; HMC3, control compound at 4uM): 57.1 % control; 2. Nuclear Area (% Control) ([2]; HMC3, control compound at 4uM): 76.9 % Control; 3. Nuclear DNA Intensity (% control) ([2]; HMC3, control compound at 4uM): 178.9 % control; 4. Phagocytosis (% control) ([3]; BV2, control compound at 4uM, pHrodo-myelin): 18.4 % control; 4. Phagocytosis (% control) ([4]; HMC3, control compound at 4uM, pHrodo-myelin): 4.8 % control
Cc1cc(Nc2nc(N[C@@H](C)c3ncc(F)cn3)ncc2Cl)n[nH]1 [UNC10302859A] | 53.2 % control | 109.7 % Control | 105.5 % control | 84.7 % control | 121.3 % Control | 92.5 % control | 153.2 % control | 95.5 % control | – | – | – | – | – | – | – | – | –
CCN(C)C(=O)Oc1cccc([C@H](C)N(C)C)c1 [UNC10303091A] | – | – | – | – | – | – | – | – | 139.1 % control | 103.4 % Control | 100.1 % control | 141.4 % control | 98.9 % Control | 95.5 % control | 166.0 % control | 80.4 % control | –
Cc1cc2c(cc1C(=O)c1ccc(C(=O)O)cc1)C(C)(C)CCC2(C)C [UNC10302892A] | – | – | – | – | – | – | – | – | 95.3 % control | 107.4 % Control | 95.0 % control | 88.9 % control | 102.9 % Control | 97.5 % control | 90.2 % control | 75.7 % control | –
COc1ccc(CC[C@@H](OC(=O)[C@@H]2CCCCN2C(=O)[C@H](c2cc(OC)c(OC)c(OC)c2)C2CCCCC2)c2cccc(OCC(=O)O)c2)cc1OC [UNC10302701A] | 117.8 % control | 104.1 % Control | 103.5 % control | 116.9 % control | 101.8 % Control | 97.5 % control | 156.6 % control | 71.9 % control | – | – | – | – | – | – | – | – | –
CCN(CC)c1ccc(/C=N/NC(=O)c2ccc(O)cc2)cc1 [UNC10302868A] | – | – | – | – | – | – | – | – | 64.8 % control | 105.9 % Control | 100.1 % control | 102.3 % control | 101.3 % Control | 100.0 % control | 142.8 % control | 65.0 % control | –
CC(C)(O)c1coc(S(=O)(=O)[N-]C(=O)Nc2c3c(cc4c2CCC4)CCC3)c1.[Na+] [UNC10302861A] | – | – | – | – | – | – | – | – | 111.0 % control | 101.8 % Control | 106.4 % control | 119.4 % control | 98.5 % Control | 105.7 % control | 115.8 % control | 105.6 % control | –
OC(c1cc(C23CC4CC(CC(C4)C2)C3)nc2c(Cl)cc(Cl)cc12)C1CCCCN1 (centres unmarked) [UNC10302897A] | – | – | – | – | – | – | – | – | 63.8 % control | 105.3 % Control | 99.1 % control | 110.1 % control | 94.7 % Control | 100.9 % control | 122.3 % control | 67.0 % control | –
